Assay [1] has as its target T1, Nitric oxide synthase, inducible (Homo sapiens, UniProt P35228). In words: Binding affinity to truncated iNOS construct (1-490) by spectral assay.
Assay [2] addresses T1, Nitric oxide synthase, inducible. Kind of assay: Inhibition of full length iNOS by high-throughput oxymyoglobin assay.
The target is the same in assay [3].

The source of these data is ChEMBL document CHEMBL1143863, “N(G)-aminoguanidines from primary amines and the preparation of nitric oxide synthase inhibitors” (J Med Chem, 2008).

Each structure is given as a SMILES string.

Broadly, the Kd is the equilibrium constant for the complex coming apart. The Ki is a measure of affinity in units of concentration, obtained from inhibition or displacement. Read a low Ki as tighter binding.

T1 sequence (P35228 whole entry, the tested form may be a part): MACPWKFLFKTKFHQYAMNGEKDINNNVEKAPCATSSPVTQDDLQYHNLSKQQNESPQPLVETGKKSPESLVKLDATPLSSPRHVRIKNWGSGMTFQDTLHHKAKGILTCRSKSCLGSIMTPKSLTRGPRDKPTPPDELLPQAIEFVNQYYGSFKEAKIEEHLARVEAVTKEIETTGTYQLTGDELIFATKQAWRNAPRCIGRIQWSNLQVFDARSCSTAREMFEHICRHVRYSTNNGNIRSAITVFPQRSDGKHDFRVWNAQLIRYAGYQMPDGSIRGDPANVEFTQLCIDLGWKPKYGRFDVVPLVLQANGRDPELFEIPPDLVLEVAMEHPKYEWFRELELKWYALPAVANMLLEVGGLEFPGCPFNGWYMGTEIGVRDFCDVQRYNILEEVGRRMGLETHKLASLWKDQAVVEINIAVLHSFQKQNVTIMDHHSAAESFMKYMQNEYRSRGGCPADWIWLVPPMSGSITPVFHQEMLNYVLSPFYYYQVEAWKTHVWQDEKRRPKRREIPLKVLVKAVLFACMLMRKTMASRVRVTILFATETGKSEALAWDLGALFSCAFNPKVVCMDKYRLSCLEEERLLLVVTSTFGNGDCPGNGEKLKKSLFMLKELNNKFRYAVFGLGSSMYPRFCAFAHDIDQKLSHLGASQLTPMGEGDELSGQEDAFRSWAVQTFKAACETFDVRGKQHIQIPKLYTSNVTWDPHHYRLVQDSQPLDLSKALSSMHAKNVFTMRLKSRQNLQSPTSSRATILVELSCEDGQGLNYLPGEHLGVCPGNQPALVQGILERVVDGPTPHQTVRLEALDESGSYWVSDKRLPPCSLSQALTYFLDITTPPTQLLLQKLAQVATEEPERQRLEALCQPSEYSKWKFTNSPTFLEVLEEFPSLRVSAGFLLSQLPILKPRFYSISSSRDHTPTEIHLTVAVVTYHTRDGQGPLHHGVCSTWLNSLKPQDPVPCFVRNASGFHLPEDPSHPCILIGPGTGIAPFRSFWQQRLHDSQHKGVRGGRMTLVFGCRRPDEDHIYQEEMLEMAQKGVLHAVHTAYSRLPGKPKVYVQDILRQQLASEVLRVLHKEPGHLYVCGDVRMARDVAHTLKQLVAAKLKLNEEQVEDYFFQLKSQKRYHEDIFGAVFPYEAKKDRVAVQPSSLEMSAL

In assay [1], `N=C(N)NCCC[C@H](N)C(=O)O` [ARGININE] had a Kd of 7 µM.

In the case of `N/C(=N/CCC[C@H](N)C(=O)O)N(N)CC(F)(F)F`, affinity in assay [2] was put at a Ki of 10.5 µM. The compound also came in with a Kd in assay [1] of 40.4 µM.

`CN/N=C(\N)NCCC[C@H](N)C(=O)O`: the Ki in assay [2] was determined as 16.4 µM. For the same compound, the dissociation constant (Kd) in assay [1] came out at 29 µM.

Compound `CN(N)/C(N)=N\CCC[C@H](N)C(=O)O` showed a Kinact in assay [3] of 0.39 min⁻¹. In addition, the Ki in assay [2] stood at 34.1 µM. The Kd in assay [1] amounted to 10 µM.

Take `N/N=C(\N)NCCC[C@H](N)C(=O)O`: the Kinact in assay [3] amounted to 0.18 min⁻¹. The compound also displayed a Ki in assay [2] of 2.2 µM. In assay [1], this compound displayed a Kd of 1.3 µM.
